{"source": "patent US20250144168A1", "about": "“LANTHIPEPTIDES AND METHODS OF USE” (priority 2022, published 2025)", "key": {"[1]": {"tested_on": "human whole blood neutrophils and monocytes", "assay": "Whole blood phagocytosis (pHrodo) and CD marker flow cytometry", "type": "cell-based", "conditions": "N-terminal analogues, unlike full-length salivaricin 10", "from_the_text": "Neutrophils and monocytes display different activation states characterized by expression levels of cell surface CD marker in the oral cavity depending on the bacteria that they are interacting with. In health, neutrophils in the oral cavity are in a parainflammatory state, and with dysbiosis neutrophil phenotypes change towards a proinflammatory state. To determine if salivaricin 10 can prime neutrophils to augment pathogen elimination through phagocytosis, the surface expression of specific activation CD markers was assessed on human and murine neutrophils stimulated either with pHrodo (pH-sensitive, heat killed E. coli) alone or with salivaricin 10 and pHrodo. […]\nSONY SA3800 flow cytometer was used to acquire the data. […] To validate the gating strategy and antibody labeling FMO (fluorescence minus one) controls were used. […]\nData were analyzed by FlowJo software (v10.8; Tree Star). The mean fluorescence intensities (MFIs) for each CD marker were measured. Significant differences (P<0.05) were determined using GraphPad Prism 9 (GraphPad Software, Inc.). for the in-vitro human blood and mouse bone marrow assay paired Student's t-test (n=3) was used for the statistical analysis. […]"}, "[2]": {"tested_on": "isolated human neutrophils", "assay": "Neutrophil chemotaxis assay (Zigmond chamber)", "type": "cell-based", "description": "A suspension of 1×10^6 human PMNs in 100 μL HBSS containing 1% gelatin (Sigma-Aldrich) was placed on a 5% bovine serum albumin-coated 22×40 mm glass coverslip and incubated for 10 minutes at 37° C. Coverslips were then inverted onto a Zigmond chamber. Hundred microliters of HBSS and 100 μL HBSS containing N-formyl-methionyl-leucyl-phenylalanine (fMLP) 10^-6M or different concentrations of salivaricin 10 were added to the left and right chambers, respectively. PMN migration across the chamber was recorded with time-lapse of video microscopy at 20 second intervals for a period of 10 minutes using a Zeiss Motorized AxioVert (ZEISS). Captured images were analyzed using cell-tracking software (Retrac, v2.1.0.)."}, "[3]": {"tested_on": "CXCL10 and TGM2 gene expression in M1 macrophages", "assay": "Macrophage gene expression assay (CXCL10, TGM2)", "type": "cell-based", "conditions": "40 μg/mL"}, "M. luteus": {"tested_on": "M. luteus", "assay": "Zone of inhibition of the isolated peptides (spot-on-lawn)", "type": "cell-based", "conditions": "lantibiotic-sensitive target M. luteus", "description": "Pure and homogenized SALI-10 colonies were selected to inoculate 10 ml of TSB supplemented with 2% yeast extract. The fermentation was carried out overnight at 37° C. with 5% CO2 for 18 h. The produced culture was used to inoculate 20 Petri dishes (100 mm), each containing 20 mL of TSA supplemented with 2% yeast extract and 0.2% CaCO3 and incubated as mentioned above (step 1). The agar cultures were then cut into small pieces and put into 250 mL centrifugation bottles. The bottles were incubated at −80° C. for 18 h and thawed immediately in a 70° C. water bath to produce liquid material. The liquid material was then collected by centrifugation, and the resultant supernatant was extracted with one volume of chloroform. The white precipitate from chloroform extraction was dried and resuspended in 2 ml of 35% acetonitrile in water (v/v). Centrifugation was performed to remove insoluble material to produce a clear peptide extract (we call it material A). The process was repeated with induction procedure by adding 50 μl of material A to 50 ml of TSB supplemented with yeast extract and inoculating this media with SALI-10 strain by repeating step 1 and generating 300 induced agar cultures instead of 20. The induced and chloroform extracted peptide was dried as in step 1 and resuspended in 20 ml of 35% ACN in water (v/v) supplemented with 0.1% TFA. The peptides preparation was processed via solid-phase extraction using C18 Sep-Pak® column (Waters, USA) prewashed with methanol and water. After loading the peptides sample, the column was washed with 10 mL of increasing methanol concentrations (10%, 30%, 50%, 70%). Active peptides were eluted with 95% methanol supplemented with 0.1% TFA. The peptides were finally purified using HPLC and C18-Reversed Phase chromatography as mentioned previously. Eluted fractions (1 ml per minute) were tested for antimicrobial activity against the sensitive strain M. luteus ATCC10240 using the spot-on-lawn method."}, "[4]": {"tested_on": "saliva-derived multispecies biofilms", "assay": "Preformed saliva-derived multispecies biofilm, Live/Dead confocal microscopy", "type": "cell-based, human saliva bacteria", "conditions": "salivaricin 10 at 25 and 50 μg·ml^−1; nisin A at 50 μg·ml^−1; 20 min", "description": "Biofilms were formed ex-vivo using cell-free saliva as a medium and total salivary cell as inoculum (from healthy subjects). Twenty-four hours pre-formed multispecies biofilms grown anaerobically were treated with either nisin A (50 μg·ml^−1) or two concentrations of salivaricin 10 (25 and 50 μg·ml^−1) for a time exposure of 20 min. […] Salivaricin 10 penetrated saliva-derived multispecies biofilms and effectively killed the bacterial cells within (labeled with PI, lighter gray). No such effect was noticed with untreated (PBS) biofilms controls where the viable cells labeled mainly with Syto9, black. the ratio of live to dead cells decreased by a factor of 6 times compared to PBS treated conditions. […] This dose-dependent reduction in the oral biofilm thickness was reported previously for nisin A [27].\n12. Antimicrobial Activity Against Preformed Biofilms (Saliva-Derived De Novo Model)\nSaliva-derived biofilms were established in 24 well glass bottom sensoplates (Greiner Bio-One, Monroe, NC, USA) as mentioned previously. […] The mean Intensity of pixels for viable signals (Syto-9; live) and (PI; dead) were measured within biofilm areas of each image with the slices containing the highest respective signal intensity using custom Fiji (ImageJ). […] All quantifications and statistical calculations are based on 10-15 images and 5-10 stacks for each repeat (three repeats). […]"}, "[5]": {"tested_on": "saliva-derived multispecies biofilms", "assay": "Preformed saliva-derived multispecies biofilm, 16S rRNA gene sequencing", "type": "cell-based, human saliva bacteria", "from_the_text": "13. 16S rRNA Gene Sequencing […] 14. […] The UNOISE pipeline, available through […]11.0.667 and […]2.10.4, was used for sequence analysis. […] 5, a -[…] […] 1.0."}}, "note": "Square brackets hold non-standard residues; d marks the D form. Ends that are not written are not given here. pT = C[C@@H](OP(=O)(O)O)[C@H](N)C(=O)O"}
{"compound": "NH2-GWFTAVQL-COOH (H-GWF[pT]AVQL-OH; SMILES CC(C)C[C@H](NC(=O)[C@H](CCC(N)=O)NC(=O)[C@@H](NC(=O)[C@H](C)NC(=O)[C@@H](NC(=O)[C@H](Cc1ccccc1)NC(=O)[C@H](Cc1c[nH]c2ccccc12)NC(=O)CN)[C@@H](C)OP(=O)(O)O)C(C)C)C(=O)O; listed as Streptococcus salivarius) [p(1-8) Sali10, chemically synthesized eight N-terminal unbridged residues of SrnA1 and SrnA2 with pThr4]", "values": [{"measurement": "effects on the neutrophils' CD marker expression", "setting": "[1]", "result": "Neither p (1-8) Sali10 (SEQ ID NO: 16) nor np (1-8) Sali10 showed effects"}, {"measurement": "neutrophil chemotaxis of the N-terminal tail analogues", "setting": "[2]; 40 μg/mL, compared with full-length salivaricin 10", "result": "very similar activity to the full-length salivaricin 10"}, {"measurement": "gene expression of CXCL10 (M1 macrophage biomarker)", "setting": "[3]", "result": "downregulated"}, {"measurement": "gene expression of TGM2 (M2 macrophage biomarker) compared to M1 control cells", "setting": "[3]", "result": "upregulated"}]}
{"compound": "GWFTAVQLTLAGRCGRWFTGSYECTTNNVKCG (cysteine pairing not given here; also: lanthionine modifications; listed as Streptococcus salivarius) [SrnA2, major lanthipeptide of salivaricin 10, tyrosine at position 22]", "values": [{"measurement": "antimicrobial activity (zone of inhibition) of the isolated peptide", "setting": "M. luteus", "result": "more extensive zone of inhibition"}]}
{"compound": "CSCC[C@H](NC=O)C(=O)N[C@@H](CC(C)C)C(=O)N[C@@H](Cc1ccccc1)C(=O)O", "note": "[fMLP, N-formyl-methionyl-leucyl-phenylalanine, reference compound]", "values": [{"measurement": "neutrophil migration speed", "setting": "[2]; control peptide", "result": "~11", "unit": "μm/minute"}]}
{"compound": "GWSTAVRLTVQGRCGWWFTHSYECTSPNVRCG (cysteine pairing not given here; also: lanthionine modifications; listed as Streptococcus salivarius) [SrnA4]", "values": [{"measurement": "antimicrobial activity (zone of inhibition) of the isolated peptide", "setting": "M. luteus", "result": "Reduced antimicrobial activity"}]}
{"compound": "nisin A", "values": [{"measurement": "damage to biofilm architecture (confocal images)", "setting": "[4]", "result": "significant and critical damage to the biofilm architecture"}, {"measurement": "S. gordonii, S. parasanguinis levels in the biofilm", "setting": "[5]", "result": "strongly inhibited"}, {"measurement": "commensal species of the genera Veillonella, Streptococcus and Haemophilus in the biofilm", "setting": "[5]; salivaricin 10 at 25 μg and 50 μg", "result": "disrupted the indigenous oral biofilm, including beneficial commensals"}]}
{"compound": "GWFTAVQLTLAGRCGRWFTGSFECTTNNVKCG (cysteine pairing not given here; also: lanthionine modifications; listed as Streptococcus salivarius) [SrnA1, lanthipeptide of salivaricin 10, phenylalanine at position 22]", "values": [{"measurement": "antimicrobial activity (zone of inhibition) of the isolated peptide", "setting": "M. luteus", "result": "reduced"}]}
